From the NIST ThermoML archive (doi:10.1021/je900691n)

Test: xn = mol fraction of the nth substance listed
Conditions: Liquid, Pycnometric method

COC(=O)OC [dimethyl carbonate] + O=C=O
Conditions | mass density [kg/m3]
313.15 K, 12790 kPa, x1 = 0.1484 | 951
313.15 K, 12900 kPa, x1 = 0.0242 | 816
313.15 K, 12950 kPa, x1 = 0.0481 | 856
313.15 K, 13250 kPa, x1 = 0.118 | 940
313.15 K, 13270 kPa, x1 = 0.0242 | 823
313.15 K, 13310 kPa, x1 = 0.1484 | 955
313.15 K, 13450 kPa, x1 = 0.0481 | 863
313.15 K, 13580 kPa, x1 = 0.086 | 911
313.15 K, 13640 kPa, x1 = 0.0242 | 828
313.15 K, 13730 kPa, x1 = 0.118 | 943
313.15 K, 13790 kPa, x1 = 0.1484 | 957
313.15 K, 13960 kPa, x1 = 0.0242 | 833
313.15 K, 13980 kPa, x1 = 0.0481 | 869
313.15 K, 14120 kPa, x1 = 0.086 | 915
313.15 K, 14140 kPa, x1 = 0.0242 | 836
313.15 K, 14270 kPa, x1 = 0.118 | 947
313.15 K, 14430 kPa, x1 = 0.1484 | 961
313.15 K, 14560 kPa, x1 = 0.0242 | 842
313.15 K, 14620 kPa, x1 = 0.0481 | 877
313.15 K, 14750 kPa, x1 = 0.086 | 920
313.15 K, 14950 kPa, x1 = 0.0242 | 847
313.15 K, 15100 kPa, x1 = 0.1484 | 965
313.15 K, 15210 kPa, x1 = 0.0481 | 882
313.15 K, 15220 kPa, x1 = 0.068 | 924
313.15 K, 15230 kPa, x1 = 0.0242 | 851
313.15 K, 15650 kPa, x1 = 0.1484 | 968
313.15 K, 15900 kPa, x1 = 0.0481 | 890
313.15 K, 15930 kPa, x1 = 0.068 | 930
313.15 K, 16400 kPa, x1 = 0.068 | 933
313.15 K, 16470 kPa, x1 = 0.1484 | 972
317.85 K, 8660 kPa, x1 = 0.0242 | 476
317.85 K, 8710 kPa, x1 = 0.0242 | 485
317.85 K, 8720 kPa, x1 = 0.0242 | 490
317.85 K, 8750 kPa, x1 = 0.0242 | 498
317.85 K, 8780 kPa, x1 = 0.0242 | 506
317.85 K, 8820 kPa, x1 = 0.0242 | 517
317.85 K, 8880 kPa, x1 = 0.0242 | 529
317.85 K, 8930 kPa, x1 = 0.0242 | 542
317.85 K, 9000 kPa, x1 = 0.0242 | 555
317.85 K, 9070 kPa, x1 = 0.0242 | 569
317.85 K, 9150 kPa, x1 = 0.0242 | 583
317.85 K, 9250 kPa, x1 = 0.0242 | 599
317.85 K, 9350 kPa, x1 = 0.0242 | 611
317.85 K, 9500 kPa, x1 = 0.0242 | 628
317.85 K, 9710 kPa, x1 = 0.0242 | 646
317.85 K, 9910 kPa, x1 = 0.0242 | 663
318.15 K, 7340 kPa, x1 = 0.1484 | 884
318.15 K, 7630 kPa, x1 = 0.118 | 856
318.15 K, 7820 kPa, x1 = 0.1484 | 889
318.15 K, 7850 kPa, x1 = 0.118 | 859
318.15 K, 8020 kPa, x1 = 0.086 | 802
318.15 K, 8190 kPa, x1 = 0.118 | 864
318.15 K, 8270 kPa, x1 = 0.1484 | 894
318.15 K, 8410 kPa, x1 = 0.086 | 812
318.15 K, 8550 kPa, x1 = 0.0481 | 683
318.15 K, 8610 kPa, x1 = 0.118 | 870
318.15 K, 8700 kPa, x1 = 0.0481 | 693
318.15 K, 8780 kPa, x1 = 0.1484 | 899
318.15 K, 8830 kPa, x1 = 0.086 | 820
318.15 K, 8880 kPa, x1 = 0.0481 | 706
318.15 K, 9130 kPa, x1 = 0.118 | 876
318.15 K, 9140 kPa, x1 = 0.0481 | 721
318.15 K, 9160 kPa, x1 = 0.086 | 827
318.15 K, 9300 kPa, x1 = 0.1484 | 904
318.15 K, 9450 kPa, x1 = 0.0481 | 735
318.15 K, 9580 kPa, x1 = 0.118 | 882
318.15 K, 9760 kPa, x1 = 0.0481 | 748
318.15 K, 9800 kPa, x1 = 0.1484 | 908
318.15 K, 9810 kPa, x1 = 0.086 | 838
318.15 K, 10180 kPa, x1 = 0.118 | 889
318.15 K, 10200 kPa, x1 = 0.0481 | 758
318.15 K, 10260 kPa, x1 = 0.086 | 845
318.15 K, 10270 kPa, x1 = 0.1484 | 912
318.15 K, 10720 kPa, x1 = 0.1484 | 916
318.15 K, 10740 kPa, x1 = 0.0481 | 777
318.15 K, 10750 kPa, x1 = 0.118 | 895
318.15 K, 10820 kPa, x1 = 0.086 | 853
318.15 K, 11190 kPa, x1 = 0.086 | 858
318.15 K, 11230 kPa, x1 = 0.1484 | 920
318.15 K, 11250 kPa, x1 = 0.0481 | 789
318.15 K, 11280 kPa, x1 = 0.118 | 900
318.15 K, 11720 kPa, x1 = 0.1484 | 924
318.15 K, 11740 kPa, x1 = 0.086 | 865
318.15 K, 11770 kPa, x1 = 0.0481 | 800
318.15 K, 11800 kPa, x1 = 0.118 | 905
318.15 K, 12230 kPa, x1 = 0.086 | 871
318.15 K, 12240 kPa, x1 = 0.0481 | 809
318.15 K, 12260 kPa, x1 = 0.1484 | 928
318.15 K, 12280 kPa, x1 = 0.118 | 909
318.15 K, 12690 kPa, x1 = 0.086 | 876
318.15 K, 12720 kPa, x1 = 0.0481 | 818
318.15 K, 12770 kPa, x1 = 0.118 | 913
318.15 K, 12820 kPa, x1 = 0.1484 | 932
318.15 K, 13270 kPa, x1 = 0.086 | 882
318.15 K, 13280 kPa, x1 = 0.0481 | 826
318.15 K, 13290 kPa, x1 = 0.118 | 918
318.15 K, 13410 kPa, x1 = 0.1484 | 936
318.15 K, 13730 kPa, x1 = 0.0481 | 833
318.15 K, 13750 kPa, x1 = 0.118 | 922
318.15 K, 13840 kPa, x1 = 0.086 | 888
318.15 K, 13900 kPa, x1 = 0.1484 | 939
318.15 K, 14240 kPa, x1 = 0.0481 | 841
318.15 K, 14240 kPa, x1 = 0.118 | 925
318.15 K, 14290 kPa, x1 = 0.086 | 893
318.15 K, 14390 kPa, x1 = 0.1484 | 942
318.15 K, 14710 kPa, x1 = 0.0481 | 847
318.15 K, 14720 kPa, x1 = 0.118 | 929
318.15 K, 14830 kPa, x1 = 0.086 | 898
318.15 K, 15140 kPa, x1 = 0.1484 | 947
318.15 K, 15250 kPa, x1 = 0.118 | 933
318.15 K, 15280 kPa, x1 = 0.086 | 902
318.15 K, 15300 kPa, x1 = 0.0481 | 854
318.15 K, 15760 kPa, x1 = 0.086 | 906
318.15 K, 15770 kPa, x1 = 0.1484 | 950
318.15 K, 15820 kPa, x1 = 0.118 | 937
318.15 K, 16250 kPa, x1 = 0.0481 | 865
318.15 K, 16260 kPa, x1 = 0.118 | 940
318.15 K, 16300 kPa, x1 = 0.086 | 910
318.15 K, 16420 kPa, x1 = 0.1484 | 955
323.15 K, 7960 kPa, x1 = 0.1484 | 862
323.15 K, 8290 kPa, x1 = 0.118 | 829
323.15 K, 8310 kPa, x1 = 0.1484 | 866
323.15 K, 8540 kPa, x1 = 0.118 | 833
323.15 K, 8690 kPa, x1 = 0.086 | 762
323.15 K, 8770 kPa, x1 = 0.1484 | 872
323.15 K, 8880 kPa, x1 = 0.086 | 769
323.15 K, 8960 kPa, x1 = 0.118 | 840
323.15 K, 9020 kPa, x1 = 0.0242 | 394
323.15 K, 9080 kPa, x1 = 0.0242 | 401
323.15 K, 9120 kPa, x1 = 0.0242 | 408
323.15 K, 9170 kPa, x1 = 0.0242 | 417
323.15 K, 9180 kPa, x1 = 0.0481 | 607
323.15 K, 9220 kPa, x1 = 0.086 | 779
323.15 K, 9230 kPa, x1 = 0.0242 | 427
323.15 K, 9250 kPa, x1 = 0.1484 | 877
323.15 K, 9260 kPa, x1 = 0.0481 | 617
323.15 K, 9280 kPa, x1 = 0.0242 | 436
323.15 K, 9310 kPa, x1 = 0.118 | 845
323.15 K, 9350 kPa, x1 = 0.0242 | 447
323.15 K, 9410 kPa, x1 = 0.0242 | 458
323.15 K, 9410 kPa, x1 = 0.0481 | 638
323.15 K, 9480 kPa, x1 = 0.0242 | 470
323.15 K, 9550 kPa, x1 = 0.0242 | 482
323.15 K, 9570 kPa, x1 = 0.0481 | 650
